Series [1] addresses T1, Na^+ /H^+ exchanger from rabbit erythrocytes (Oryctolagus cuniculus, UniProt P23791).
T1 construct: determine the Na^+ influx into the erythrocytes via Na^+ /H^+ exchange by flame photometry; endogenous in cells; host or cells: intact erythrocytes (whole blood samples) of cholesterol-fed White New Zealand rabbits
Put plainly: Inhibition of the Na^+ /H^+ exchanger from rabbit erythrocytes (Na^+ influx by flame photometry). The following applies: pH 7.4, 37° C., cholesterol-fed rabbits. The series is classed as cell-based, rabbit (White New Zealand). On the procedure: White New Zealand rabbits (Ivanovas) received a standard diet containing 2% cholesterol for six weeks in order to activate Na^+ /H^+ exchange and thus to be able to determine the Na^+ influx into the erythrocytes via Na^+ /H^+ exchange by flame photometry. The blood was taken from the auricular arteries and rendered uncoagulable by means of 25 IU of potassium heparin. A part of each sample was used for the duplicate determination of the hematocrit by centrifugation. Aliquots of 100 μl in each case were used to measure the Na^+ starting content of the erythrocytes.
In order to determine the amiloride-sensitive sodium influx, 100 μl of each blood sample were incubated at pH 7.4 and 37° C. in 5 ml in each case of a hyperosmolar salt-sucrose medium (mmol/l: 140 NaCl, 3 KCl, 150 sucrose, 0.1 ouabain, 20 trishydroxymethylaminomethane). The erythrocytes were then washed three times with ice-cold MgCl2 --ouabain solution (mmol/l: […] MgCl2, 0.1 ouabain) and hemolyzed in 2.0 ml of distilled water. The intracellular sodium content was determined by flame photometry.
The net Na^+ influx was calculated from the difference between sodium starting values and the sodium content of the erythrocytes after incubation. The amilorideinhibitable sodium influx ensued from the difference in the sodium content of the erythrocytes after incubation with and without amiloride 3×10^-4 mol/l. The sodium influx was also determined in this manner in the case of the compounds according to the invention.

A further series concerns cardiac arrhythmias. The note with it: in vivo; cited from earlier work.

SMILES strings stand for the structures. Counter-ions that a name gives are not always drawn.

T1 sequence (P23791 whole entry): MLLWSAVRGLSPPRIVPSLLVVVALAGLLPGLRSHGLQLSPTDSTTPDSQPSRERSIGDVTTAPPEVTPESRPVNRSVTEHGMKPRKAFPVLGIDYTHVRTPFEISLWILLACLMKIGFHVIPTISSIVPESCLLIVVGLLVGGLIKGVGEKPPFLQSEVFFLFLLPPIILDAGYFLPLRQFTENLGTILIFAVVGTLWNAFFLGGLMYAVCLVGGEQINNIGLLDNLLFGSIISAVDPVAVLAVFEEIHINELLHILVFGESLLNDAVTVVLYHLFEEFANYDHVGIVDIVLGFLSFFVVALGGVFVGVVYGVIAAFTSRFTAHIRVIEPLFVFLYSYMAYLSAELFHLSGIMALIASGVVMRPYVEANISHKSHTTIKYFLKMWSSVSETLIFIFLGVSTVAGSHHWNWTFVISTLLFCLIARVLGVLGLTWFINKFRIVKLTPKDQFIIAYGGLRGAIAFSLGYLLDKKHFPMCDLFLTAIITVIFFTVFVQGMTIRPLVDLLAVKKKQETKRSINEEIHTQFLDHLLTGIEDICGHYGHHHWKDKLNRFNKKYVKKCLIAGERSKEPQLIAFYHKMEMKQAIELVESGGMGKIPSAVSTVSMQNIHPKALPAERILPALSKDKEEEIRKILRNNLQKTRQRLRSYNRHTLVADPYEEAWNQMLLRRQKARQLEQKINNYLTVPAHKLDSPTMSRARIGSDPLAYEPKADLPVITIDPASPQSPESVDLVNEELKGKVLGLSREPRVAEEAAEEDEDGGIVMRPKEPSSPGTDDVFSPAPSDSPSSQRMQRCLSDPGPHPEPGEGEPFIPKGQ

In the case of `CC(O)c1ccc(Oc2ccc(C(=O)N=C(N)N)cc2S(C)(=O)=O)cc1` (racemic) [Example 2, hydrochloride], half-maximal inhibition in series [1] (IC50) was put at 400 nM.
Same read-out and setting: with `CC(=O)c1ccc(Oc2ccc(C(=O)N=C(N)N)cc2S(C)(=O)=O)cc1` [Example 1, 4-(4-Acetylphenoxy)-3-methylsulfonylbenzoylguanidine] the figure was 400 nM; with `C[C@@H](O)[C@H](O)c1ccc(Oc2ccc(C(=O)N=C(N)N)cc2S(C)(=O)=O)cc1` [Example 3, 4-[4-(1(R),2(R) -Dihydroxyprop-1-yl)phenoxy]-3-methylsulfonylbenzoylguanidine], 300 to 500 nM; with `C[C@H](O)[C@@H](O)c1ccc(Oc2ccc(C(=O)N=C(N)N)cc2S(C)(=O)=O)cc1` [Example 4, 4-[4-(1(S),2(S)-Dihydroxyprop-1-yl)phenoxy]-3-methylsulfonylbenzoylguanidin], 100 to 500 nM.
Regarding `N=C(N)NC(=O)c1nc(Cl)c(N)nc1N` [amiloride, Amiloride], the “side effects accompanying antiarrhythmic effect” value with cardiac arrhythmias was “hypotensive and saluretic action”.

The values are drawn from US5880156A, “Substituted benzoylguanidines, process for their preparation, their use as a medicament or diagnostic and medicament containing them” (priority 1993, dated 1999).
